Reference: US8642801B2 (BHI Limited Partnership, priority 2003, dated 2014)

Experiments:
[1] = system: Aβ40 and Aβ42 peptides in plasma and brain of TgCRND8 mice; test: Long term treatment in adult transgenic CRND8 mice overexpressing βAPP: Aβ levels in plasma and brain by ELISA; format: in vivo, Mouse; conditions: at both 8 and 16 weeks
Description: (§1) Transgenic mice, TgCRND8, as those used in the short term treatment, overexpress a human APP gene with the Swedish and Indiana mutations leading to the production of high levels of the amyloid peptides and to the development of an early-onset, aggressive development of brain amyloidosis. The high levels of Aβ peptides and the relative overabundance of Aβ42 compared to Aβ40 are believed to be associated with the severe and early degenerative pathology observed. The pattern of amyloid deposition, presence of dystrophic neuritis, and cognitive deficit has been well documented in this transgenic mouse line. The levels of Aβ peptides in the brain of these mice increase dramatically as the animals age. While the total amyloid peptide levels increase from ˜1.6×10^5 pg/g of brain to ˜3.8×10^6 between 9 and 17 weeks of age.
(§2) The long-term therapeutic effects of compounds of the present invention on cerebral amyloid deposition and β-amyloid (Aβ) levels in the plasma and in the brains of transgenic mice, TgCRND8, expressing the human amyloid precursor protein (hAPP) was studied. These compounds were administered over an 8 or 16 week period at the end of which the levels of Aβ peptides in the plasma and brain of TgCRND8 animals were determined. The goal of this study was to evaluate the efficacy of the compounds at modulating the progression of the amyloidogenic process in the brain and in the plasma of a transgenic mouse model of Alzheimer's disease (AD)
(§3) The mice used in the study consisted of animals bearing one copy of the hAPP gene (+/−) from the 2nd and 3rd generation progenies (N2 and N3) derived from backcrosses from TgCRND8.FVB(N2)AJ(N3) with B6AF1/J hybrid animals. N1=TgCRND8.FVB(N2)AJ(N3)×B6AF1/J N2=TgCRND8.FVB(N2)AJ(N3).B6AF1/J(N1)×B6AF1/J N3=TgCRND8.FVB(N2)AJ(N3).B6AF1/J(N2)×B6AF1/a
(§4) The following abbreviations are used to designate these animals in the present study: TgCRND8.B6AF1/J(N2); TgCRND8.B6AF1/J(N3). Male and female transgenic mice were given daily subcutaneous (compound BX) or oral (compounds BW and BZ) administrations of the appropriate compounds for 8 or 16 weeks.
(§5) Baseline animals consisted of 9±1 week old naive TgCRND8.B6AF1/J animals from the 2nd and 3rd generations. These mice were used to determine the extent of cerebral amyloid deposits and Aβ levels in the plasma and brain of naive transgenic animals at the initiation of treatment.
(§6) Starting at 9 weeks of age (±1 week) animals received daily administration of their respective treatment for a period of 8 or 16 weeks, at a dose of 30 or 100 mg/kg at 10 ml/kg. The route of administration was subcutaneous for water-soluble compounds (Compound BX) and oral for compounds solubilized in methylcellulose 1% (MC 1%) (Compounds BW and BZ). At the end of the treatment periods, plasma and perfused brains were collected for quantification of Aβ levels.
(§7) Animal health was monitored, samples were collected and Aβ levels were measured as described above in the short term treatment study. Compounds were scored based on their ability to modulate levels of Aβ peptides in the plasma and the cerebral soluble/insoluble levels in the brain. Levels of Aβ observed in the plasma and brain of treated animals were compared to that of vehicle-treated (water) or methylcellulose-treated control groups and ranked according to the strength of the pharmacological effect. Increases in the levels of Aβ peptides are indicated using “+” symbols, while decreases in the levels of Aβ peptides are indicated using “−” symbols. The strongest effects are recorded as “+++” or “−−−” while the weakest are shown as “+” or “−”.
(§8) Specifically, increases in the levels of Aβ (relative to vehicle treated control) of 5 to 14% are scored as “+”; increases of 15 to 29% are scored as “++”; and increases of 30% or higher are scored as “+++”. Decreases in the levels of Aβ of 5 to 14% are scored as “−”; decreases of 15 to 29% are scored as “−−”; and decreases of 30% or more are scored as “−−−”. […]

[2] = biological target: T1, Aβ40 and Aβ42 peptides in plasma and brain of TgCRND8 mice (Homo sapiens, UniProt P05067); test: as above; format: in vivo, Mouse; conditions: BX subcutaneous, BW and BZ oral, vs vehicle or methylcellulose control
T1 construct: ELISA using Human Aβ40 and Aβ42 Fluorometric ELISA kits from Biosource; from tissue; host or cells: plasma and brain homogenate of TgCRND8 transgenic mice (hAPP transgene)
Description: as §1, §2, §3, §4, §5, §6, §7, §8

SMILES: CC(C)(C)NCCCS(=O)(=O)O [BX, 3-(t-butyl)amino-1-propanesulfonic acid]
- amount of Aβ in the brain [1]: dramatic decrease
- Brain Abeta40 insoluble ([2]; 30 mg/kg daily, 8 wks): −−− (decreases of 30% or more are scored as “−−−”)
- Brain Abeta40 soluble ([2]; 30 mg/kg daily, 8 wks): −−− (decreases of 30% or more are scored as “−−−”)
- Brain Abeta42 insoluble ([2]; 30 mg/kg daily, 8 wks): −− (decreases of 15 to 29% are scored as “−−”)
- Brain Abeta42 soluble ([2]; 30 mg/kg daily, 8 wks): −−− (decreases of 30% or more are scored as “−−−”)
- Plasma Abeta40 ([2]; 30 mg/kg daily, 8 wks): + (increases in the levels of Aβ (relative to vehicle treated control) of 5 to 14% are scored as “+”)
- Plasma Abeta42 ([2]; 30 mg/kg daily, 8 wks): + (increases in the levels of Aβ (relative to vehicle treated control) of 5 to 14% are scored as “+”)
- Brain Abeta40 insoluble ([2]; 30 mg/kg daily, 16 wks): −−− (decreases of 30% or more are scored as “−−−”)
- Brain Abeta40 soluble ([2]; 30 mg/kg daily, 16 wks): −− (decreases of 15 to 29% are scored as “−−”)
- Brain Abeta42 insoluble ([2]; 30 mg/kg daily, 16 wks): − (Decreases in the levels of Aβ of 5 to 14% are scored as “−”)
- Brain Abeta42 soluble ([2]; 30 mg/kg daily, 16 wks): 0 (changes of 4% or less in either direction are scored as “0”)
- Plasma Abeta40 ([2]; 30 mg/kg daily, 16 wks): − (Decreases in the levels of Aβ of 5 to 14% are scored as “−”)
- Plasma Abeta42 ([2]; 30 mg/kg daily, 16 wks): − (Decreases in the levels of Aβ of 5 to 14% are scored as “−”)
- Brain Abeta40 insoluble ([2]; 100 mg/kg daily, 8 wks): ++ (increases of 15 to 29% are scored as “++”)
- Brain Abeta40 soluble ([2]; 100 mg/kg daily, 8 wks): + (increases in the levels of Aβ (relative to vehicle treated control) of 5 to 14% are scored as “+”)
- Brain Abeta42 insoluble ([2]; 100 mg/kg daily, 8 wks): 0 (changes of 4% or less in either direction are scored as “0”)
- Brain Abeta42 soluble ([2]; 100 mg/kg daily, 8 wks): + (increases in the levels of Aβ (relative to vehicle treated control) of 5 to 14% are scored as “+”)
- Plasma Abeta40 ([2]; 100 mg/kg daily, 8 wks): ++ (increases of 15 to 29% are scored as “++”)
- Plasma Abeta42 ([2]; 100 mg/kg daily, 8 wks): +++ (increases of 30% or higher are scored as “+++”)
- Brain Abeta40 insoluble ([2]; 100 mg/kg daily, 16 wks): −−− (decreases of 30% or more are scored as “−−−”)
- Brain Abeta40 soluble ([2]; 100 mg/kg daily, 16 wks): − (Decreases in the levels of Aβ of 5 to 14% are scored as “−”)
- Brain Abeta42 insoluble ([2]; 100 mg/kg daily, 16 wks): −− (decreases of 15 to 29% are scored as “−−”)
- Brain Abeta42 soluble ([2]; 100 mg/kg daily, 16 wks): 0 (changes of 4% or less in either direction are scored as “0”)
- Plasma Abeta40 ([2]; 100 mg/kg daily, 16 wks): − (Decreases in the levels of Aβ of 5 to 14% are scored as “−”)
- Plasma Abeta42 ([2]; 100 mg/kg daily, 16 wks): 0 (changes of 4% or less in either direction are scored as “0”)
